Data set [1] deals with Rattus norvegicus. Put plainly: Antianxiety activity in ip dosed rat assessed as effect on increase in punished responses administered qd for 5 days measured every day for 5 days. Format: functional. Conditions: 120 h, read-out: MED.
Data set [2] is described as follows: Therapeutic index, ratio of PD50 for acute toxicity in po dosed mouse assessed as concentration required to produce 50% loss of righting reflex to MED causing antianxiety activity in ip dosed rat assessed as effect on increase in punished responses. The format is organism-based. Conditions: in vivo, other: oral (PD50, mouse) and intraperitoneal (MED, rat), read-out: TI.

Data set [3] deals with Mus musculus. The data set is described as follows: Anticonvulsant activity in po dosed mouse assessed as blockade of supramaximal electroshock-induced […] seizure. Format: functional. For orientation: In the maximal electroshock model the usual endpoint is tonic extension of the hind limbs.
In data set [4] the test system is Mus musculus. The data set is described as follows: Muscle relaxant activity in po dosed mouse assessed as increase in strychnine-induced persistant convulsive threshold. The format is functional.
Data set [5] deals with Mus musculus. Put plainly: Muscle relaxant activity in po dosed mouse assessed as blockade of pentylenetetrazol-induced tonic extensor seizure. Format: functional.
In data set [6] the test system is Mus musculus. Put plainly: Sedative-hypnotic activity in mouse assessed as increase in pentylenetetrazol-induced pseudo/persistent-convulsive threshold at 50 to 200 mg/kg, po. The format is functional, organism-based.
Data set [7] relates to Mus musculus. The data set is described as follows: Sedative activity in mouse assessed as increase in pentylenetetrazol-induced pseudo-convulsive threshold at 25 mg/kg, po relative to control. Format: functional.
Data set [8] deals with Mus musculus. Put plainly: Sedative activity in mouse assessed as increase in pentylenetetrazol-induced pseudo-convulsive threshold at 25 to 200 mg/kg, po. Format: functional, organism-based.
The nature of data set [9]: Ratio of LD50 for po dosed mouse to PD50 for acute toxicity in po dosed mouse assessed as concentration required to produce 50% loss of righting reflex. Format: organism-based. To be noted: in vivo.
The subject of data set [10] is Mus musculus. The data set is described as follows: Hypnotic activity in mouse assessed as increase in pentylenetetrazol-induced persistent-convulsive threshold at 50 mg/kg, po relative to control. The format is functional.
Data set [11] in a line: Acute toxicity in po dosed mouse assessed as mortality administered as qd for 6 days measured on day 7 post last dose. The format is organism-based. To be noted: in vivo.
For data set [12], the system named is Mus musculus. Put plainly: Acute toxicity in po dosed mouse assessed as concentration required to produce 50% loss of righting reflex administered as qd for 4 days measured for 1 min post last dose. The format is organism-based. To be noted: in vivo.
The subject of data set [13] is Mus musculus. Put plainly: Sedative activity in mouse assessed as increase in pentylenetetrazol-induced pseudo-convulsive threshold at 50 mg/kg, po relative to control. The format is functional.
For data set [14], the system named is Mus musculus. Put plainly: Sedative activity in mouse assessed as increase in pentylenetetrazol-induced pseudo-convulsive threshold at 200 mg/kg, po relative to control. The format is functional.
For data set [15], the system named is Mus musculus. The data set is described as follows: Hypotic activity in mouse assessed as increase in pentylenetetrazol-induced persistant-convulsive threshold at 200 mg/kg, po relative to control. Format: functional, organism-based. On the set-up: dose 200 mg/kg.
The subject of data set [16] is Mus musculus. Put plainly: Sedative activity in mouse assessed as increase in pentylenetetrazol-induced pseudo-convulsive threshold at 100 mg/kg, po. Format: functional, organism-based. On the set-up: dose 100 mg/kg.
Data set [17] is described as follows: Therapeutic index, ratio of PD50 for acute toxicity in po dosed mouse assessed as concentration required to produce 50% loss of righting reflex to MED20 for muscle relaxant activity in po dosed mouse assessed as blockade of pentylenetetrazol-induced tonic extensor seizure. The format is organism-based. To be noted: in vivo, read-out: TI.
A short description of data set [18]: Therapeutic index, ratio of PD50 for acute toxicity in po dosed mouse assessed as concentration required to produce 50% loss of righting reflex to MED20 for anticonvulsant activity in po dosed mouse assessed as blockade of supramaximal electroshock-induced […] seizure. The format is organism-based. Conditions: in vivo, read-out: TI.
The nature of data set [19]: Therapeutic index, ratio of PD50 for acute toxicity in po dosed mouse assessed as concentration required to produce 50% loss of righting reflex to MED25 for muscle relaxant activity in po dosed mouse assessed as increase in strychnine-induced persistant convulsive threshold. Format: organism-based. To be noted: in vivo, read-out: TI.
In data set [20] the test system is Rattus norvegicus. Put plainly: Antianxiety activity in rat assessed as effect on increase in punished responses at 25 mg/kg, ip qd administered for 5 days measured every day for 5 days. Format: functional, organism-based. On the set-up: dose 25 mg/kg.

Each structure is given as a SMILES string. The source made the active and inactive calls. Where only a bound is given, the exact number is not on record here.

Take `CN1CCC/C1=N\C(=O)Nc1ccc([N+](=O)[O-])cc1`: the minimal effective dose in the data set with Rattus norvegicus [1] was determined as 15 mg/kg. For the same molecule, the selectivity ratio came to 80 in data set [2] and 1 in data set [9]. Further, the values for the MED20 in the data set with Mus musculus [3] and with Mus musculus [5] were more than 200 mg/kg and 100 mg/kg, respectively. The MED25 with Mus musculus [4] is more than 200 mg/kg. Also, the outcome in the data set on Mus musculus [6] and in the data set on Mus musculus [8] was Active. The Activity was determined as 25% in the data set with Mus musculus [7], 45% in the data set on Mus musculus [10] and 73% in the data set on Mus musculus [13]. Further, the LD50 (in general, the dose expected to kill half of the subjects tested) at 144 h in [11] came out at 1310 mg/kg. Besides, the PD50 in the data set with Mus musculus [12] was 1200 mg/kg.
As to `CN1CCC/C1=N\C(=O)Nc1cccc(Cl)c1`, the minimal effective dose in the data set on Rattus norvegicus [1] stood at 15 mg/kg. Further, the selectivity ratio in data set [2] came to 63; in data set [9], 1.6. In addition, the results for the MED20 in the data set on Mus musculus [3] and with Mus musculus [5] were 142 mg/kg and 32 mg/kg, respectively. The MED25 in the data set on Mus musculus [4] was 50 mg/kg. The outcome in the data set on Mus musculus [8] was Active. Further, in the data set with Mus musculus [14], the Activity is 50%. The LD50 at 144 h in data set [11] stood at 1500 mg/kg. Also, the outcome with Mus musculus [15] and in the data set on Mus musculus [16] was inactive. The PD50 with Mus musculus [12] stood at 950 mg/kg.
Consider `COc1ccccc1OCC(O)COC(N)=O` (stereo unspecified) [METHOCARBAMOL], for which the minimal effective dose in the data set with Rattus norvegicus [1] was more than 25 mg/kg. For the same molecule, the MED20 is 120 mg/kg in the data set on Mus musculus [3] and 150 mg/kg in the data set with Mus musculus [5]. Further, the MED25 in the data set with Mus musculus [4] came out at 310 mg/kg. The selectivity ratio in [17] amounted to 7; in data set [9], 1.9; in data set [18] it was 8.7; in data set [19] it was 3.4. Moreover, the 50% lethal dose (LD50) at 144 h in data set [11] came to 2000 mg/kg. Further, the PD50 in the data set with Mus musculus [12] turned out to be 1050 mg/kg.
As to `CCCCCCCCCCCCNC(=O)/N=C1\CCCN1`, the outcome in the data set with Rattus norvegicus [20] was Active.

The values are drawn from ChEMBL document CHEMBL3243921, “2-Pyrrolidinylideneureas, a new class of central nervous system agents” (J Med Chem, 1978).
